# Active and inactive are the calls of the source.
# How the values were obtained:
# [1] = viability of uninfected HEp-2 cells – cell-based, HTS, cytotoxicity control for RSV inhibitor project, dose response (AID 2410); type: functional; conditions: human respiratory syncytial virus
# [2] = molecular target: T1, Corticotropin-releasing factor receptor 2/Corticotropin-releasing factor-binding protein (Homo sapiens, UniProt P24387+Q13324); assay: Dose Response confirmation of uHTS hits for small molecule antagonists of the CRF-binding protein and CRF-R2 receptor complex.; type: functional; conditions: read-out: IC50_Mean
# T1 sequence (Q13324 whole entry): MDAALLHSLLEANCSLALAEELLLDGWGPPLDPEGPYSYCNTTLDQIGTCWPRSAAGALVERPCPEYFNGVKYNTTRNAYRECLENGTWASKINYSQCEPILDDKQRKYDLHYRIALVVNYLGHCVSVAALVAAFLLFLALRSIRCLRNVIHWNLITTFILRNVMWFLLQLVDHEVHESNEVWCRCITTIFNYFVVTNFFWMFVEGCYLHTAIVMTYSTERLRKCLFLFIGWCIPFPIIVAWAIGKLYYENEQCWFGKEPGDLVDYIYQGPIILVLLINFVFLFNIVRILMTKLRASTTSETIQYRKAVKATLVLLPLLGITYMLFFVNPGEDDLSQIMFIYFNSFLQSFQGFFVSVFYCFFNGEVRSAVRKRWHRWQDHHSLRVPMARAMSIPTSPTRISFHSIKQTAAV
# T1 sequence (P24387 whole entry): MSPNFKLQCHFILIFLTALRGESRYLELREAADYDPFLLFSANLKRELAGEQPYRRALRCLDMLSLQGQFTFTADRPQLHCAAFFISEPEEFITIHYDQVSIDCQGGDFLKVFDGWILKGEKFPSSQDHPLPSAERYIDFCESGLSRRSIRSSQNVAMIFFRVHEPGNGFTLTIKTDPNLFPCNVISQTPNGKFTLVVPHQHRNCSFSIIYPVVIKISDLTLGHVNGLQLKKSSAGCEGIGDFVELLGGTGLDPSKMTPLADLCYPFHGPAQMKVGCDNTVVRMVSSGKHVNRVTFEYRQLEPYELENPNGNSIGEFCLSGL
# [3] = blockers of CRF-binding protein–CRF-R2 complex – cell-based, uHTS hits, 384-well, dose response (AID 651639); type: functional, Homo sapiens; conditions: read-out: IC50_Mean
# [4] = molecular target: T2, Streptokinase A (Streptococcus pyogenes serotype M1, UniProt P10520); assay: viability-normalized secreted streptokinase activity reduction – plasminogen activation absorbance, OD405, dose response (AID 1914); type: functional, Streptococcus pyogenes M1 GAS;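 note: secreted streptokinase activity via plasminogen activation per viability signal from cell pellet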
# T2 sequence (P10520 whole entry): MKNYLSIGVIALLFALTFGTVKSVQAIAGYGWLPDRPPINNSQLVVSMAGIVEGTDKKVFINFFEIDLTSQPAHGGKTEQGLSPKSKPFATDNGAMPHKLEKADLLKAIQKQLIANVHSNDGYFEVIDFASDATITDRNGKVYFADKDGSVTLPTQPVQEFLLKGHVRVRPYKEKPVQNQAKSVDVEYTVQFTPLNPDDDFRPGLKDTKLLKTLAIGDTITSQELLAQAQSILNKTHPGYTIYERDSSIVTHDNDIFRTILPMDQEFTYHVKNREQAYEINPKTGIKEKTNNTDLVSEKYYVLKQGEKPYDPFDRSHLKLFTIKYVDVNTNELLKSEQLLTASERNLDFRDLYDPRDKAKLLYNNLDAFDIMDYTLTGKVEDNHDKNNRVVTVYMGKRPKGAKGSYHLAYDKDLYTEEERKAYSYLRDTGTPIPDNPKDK
# [5] = test system: Streptococcus sp. 'group A'; assay: Streptococcus pyogenes SK(-)GAS viability under kanamycin – luminescence, BacTiterGlo, confirmation, counter-screen for streptokinase expression inhibitor project, dose response (AID 1900); type: functional, organism-based
# [6] = molecular target: T1, Corticotropin-releasing factor receptor 2/Corticotropin-releasing factor-binding protein; assay: activators of CRF receptor 2 with binding protein – uHTS hits, confirmation (AID 602473); type: functional; conditions: read-out: EC50_Mean
# [7] = test system: Streptococcus; assay: GAS UMAA2166 growth inhibition – luminescence, BacTiterGlo, counter-screen for streptokinase expression inhibitor project, dose response (AID 1915); type: functional, organism-based;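 note: potency for reduction of bacterial viability or growth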
# [8] = molecular target: T3, Fatty acid synthase (Homo sapiens, UniProt P49327); assay: inhibition of human FAS-TE enzyme activity – biochemical, endpoint fluorescence intensity, uHTS hits, dose response (AID 624327); type: functional;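 note: fluorescence from hydrolysis of an O-methyl fluorescein acyl ester substrate by the enzyme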
# [9] = molecular target: T3, Fatty acid synthase; assay: inhibition of human FAS-TE enzyme activity – biochemical, kinetic fluorescence intensity, dose response (AID 624326); type: functional;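 note: rate of fluorescence rise from hydrolysis of a fluorogenic O-methyl fluorescein ester substrate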
# [10] = molecular target: T4, Heat shock factor protein 1 (Mus musculus, UniProt P38532); assay: enhancement of HSF1-driven luciferase signal – cell-based, NIH3T3, luminescence, dose retest, confirmation (AID 435004); type: functional;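 note: stress induced by proteasome inhibitor MG132 added 30 min after compound; luciferase reporter driven by HSF1 response element in NIH3T3 cells; actives raise luminescence as potentiators of the MG132 stress response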
# T4 sequence (P38532 whole entry): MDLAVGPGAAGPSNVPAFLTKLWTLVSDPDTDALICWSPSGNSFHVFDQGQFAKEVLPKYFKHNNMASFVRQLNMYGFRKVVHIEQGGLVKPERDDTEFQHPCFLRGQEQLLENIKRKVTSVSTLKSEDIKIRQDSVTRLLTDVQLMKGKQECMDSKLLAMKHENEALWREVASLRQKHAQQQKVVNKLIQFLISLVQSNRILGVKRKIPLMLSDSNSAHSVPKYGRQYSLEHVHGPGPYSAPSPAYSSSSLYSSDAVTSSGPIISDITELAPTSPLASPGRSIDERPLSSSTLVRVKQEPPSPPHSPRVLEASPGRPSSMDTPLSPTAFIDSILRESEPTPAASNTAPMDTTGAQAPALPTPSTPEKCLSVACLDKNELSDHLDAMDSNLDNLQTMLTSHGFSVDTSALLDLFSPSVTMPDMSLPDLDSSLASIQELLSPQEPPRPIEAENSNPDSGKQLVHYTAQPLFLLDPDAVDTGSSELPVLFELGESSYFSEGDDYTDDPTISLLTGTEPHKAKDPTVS
# [11] = molecular target: Prothrombin (Homo sapiens, UniProt P00734); assay: Thrombin 1536 HTS Dose Response Confirmation. [Related pubchem assays: 1046 (Thrombin 1536 HTS; hits were confirmed in this assay)]; type: functional
# [12] = molecular target: Cytochrome P450 2C9 (Homo sapiens, UniProt P11712)
# [13] = molecular target: T5, Cytochrome P450 1A2 (Homo sapiens, UniProt P05177);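 note: PubChem cytochrome P450 panel assay, CYP1A2 panel member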
# T5 sequence (P05177 whole entry): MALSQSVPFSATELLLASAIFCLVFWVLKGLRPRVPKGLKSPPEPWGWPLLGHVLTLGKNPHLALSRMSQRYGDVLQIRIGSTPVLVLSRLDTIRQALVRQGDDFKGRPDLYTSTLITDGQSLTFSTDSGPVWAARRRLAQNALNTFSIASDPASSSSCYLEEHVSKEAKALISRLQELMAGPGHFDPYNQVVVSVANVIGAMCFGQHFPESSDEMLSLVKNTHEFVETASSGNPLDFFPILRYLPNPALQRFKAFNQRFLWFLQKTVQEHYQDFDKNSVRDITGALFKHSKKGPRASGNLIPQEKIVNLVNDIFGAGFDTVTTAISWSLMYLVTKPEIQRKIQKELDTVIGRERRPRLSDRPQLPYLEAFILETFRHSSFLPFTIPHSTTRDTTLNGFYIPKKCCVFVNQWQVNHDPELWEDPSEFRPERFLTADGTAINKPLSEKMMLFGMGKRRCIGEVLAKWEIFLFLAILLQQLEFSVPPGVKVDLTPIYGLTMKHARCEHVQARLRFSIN
# [14] = molecular target: Estrogen receptor beta (Homo sapiens, UniProt Q92731);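 note: recombinant ER-beta bound to coactivator SRC1 peptide in presence of estradiol agonist; inhibitors block coactivator peptide binding and lower the FRET signal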
# [15] = molecular target: T6, DNA repair protein RAD52 homolog (Homo sapiens, UniProt P43351); type: functional, biochemical
# T6 sequence (P43351 whole entry): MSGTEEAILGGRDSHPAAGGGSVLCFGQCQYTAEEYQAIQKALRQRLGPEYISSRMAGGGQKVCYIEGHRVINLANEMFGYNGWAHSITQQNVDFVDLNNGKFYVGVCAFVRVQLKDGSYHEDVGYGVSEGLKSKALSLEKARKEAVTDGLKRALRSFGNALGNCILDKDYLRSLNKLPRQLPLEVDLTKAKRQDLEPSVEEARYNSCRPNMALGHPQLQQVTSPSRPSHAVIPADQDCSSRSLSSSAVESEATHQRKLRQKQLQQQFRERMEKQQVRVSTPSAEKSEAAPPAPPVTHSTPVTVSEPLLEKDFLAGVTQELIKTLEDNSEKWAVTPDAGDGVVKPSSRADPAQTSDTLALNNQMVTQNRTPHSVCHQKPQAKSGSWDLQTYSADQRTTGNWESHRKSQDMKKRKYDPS
# [16] = test system: Vero; assay: cells; type: functional; conditions: Chlorocebus sabaeus
# T3 sequence (P49327 whole entry): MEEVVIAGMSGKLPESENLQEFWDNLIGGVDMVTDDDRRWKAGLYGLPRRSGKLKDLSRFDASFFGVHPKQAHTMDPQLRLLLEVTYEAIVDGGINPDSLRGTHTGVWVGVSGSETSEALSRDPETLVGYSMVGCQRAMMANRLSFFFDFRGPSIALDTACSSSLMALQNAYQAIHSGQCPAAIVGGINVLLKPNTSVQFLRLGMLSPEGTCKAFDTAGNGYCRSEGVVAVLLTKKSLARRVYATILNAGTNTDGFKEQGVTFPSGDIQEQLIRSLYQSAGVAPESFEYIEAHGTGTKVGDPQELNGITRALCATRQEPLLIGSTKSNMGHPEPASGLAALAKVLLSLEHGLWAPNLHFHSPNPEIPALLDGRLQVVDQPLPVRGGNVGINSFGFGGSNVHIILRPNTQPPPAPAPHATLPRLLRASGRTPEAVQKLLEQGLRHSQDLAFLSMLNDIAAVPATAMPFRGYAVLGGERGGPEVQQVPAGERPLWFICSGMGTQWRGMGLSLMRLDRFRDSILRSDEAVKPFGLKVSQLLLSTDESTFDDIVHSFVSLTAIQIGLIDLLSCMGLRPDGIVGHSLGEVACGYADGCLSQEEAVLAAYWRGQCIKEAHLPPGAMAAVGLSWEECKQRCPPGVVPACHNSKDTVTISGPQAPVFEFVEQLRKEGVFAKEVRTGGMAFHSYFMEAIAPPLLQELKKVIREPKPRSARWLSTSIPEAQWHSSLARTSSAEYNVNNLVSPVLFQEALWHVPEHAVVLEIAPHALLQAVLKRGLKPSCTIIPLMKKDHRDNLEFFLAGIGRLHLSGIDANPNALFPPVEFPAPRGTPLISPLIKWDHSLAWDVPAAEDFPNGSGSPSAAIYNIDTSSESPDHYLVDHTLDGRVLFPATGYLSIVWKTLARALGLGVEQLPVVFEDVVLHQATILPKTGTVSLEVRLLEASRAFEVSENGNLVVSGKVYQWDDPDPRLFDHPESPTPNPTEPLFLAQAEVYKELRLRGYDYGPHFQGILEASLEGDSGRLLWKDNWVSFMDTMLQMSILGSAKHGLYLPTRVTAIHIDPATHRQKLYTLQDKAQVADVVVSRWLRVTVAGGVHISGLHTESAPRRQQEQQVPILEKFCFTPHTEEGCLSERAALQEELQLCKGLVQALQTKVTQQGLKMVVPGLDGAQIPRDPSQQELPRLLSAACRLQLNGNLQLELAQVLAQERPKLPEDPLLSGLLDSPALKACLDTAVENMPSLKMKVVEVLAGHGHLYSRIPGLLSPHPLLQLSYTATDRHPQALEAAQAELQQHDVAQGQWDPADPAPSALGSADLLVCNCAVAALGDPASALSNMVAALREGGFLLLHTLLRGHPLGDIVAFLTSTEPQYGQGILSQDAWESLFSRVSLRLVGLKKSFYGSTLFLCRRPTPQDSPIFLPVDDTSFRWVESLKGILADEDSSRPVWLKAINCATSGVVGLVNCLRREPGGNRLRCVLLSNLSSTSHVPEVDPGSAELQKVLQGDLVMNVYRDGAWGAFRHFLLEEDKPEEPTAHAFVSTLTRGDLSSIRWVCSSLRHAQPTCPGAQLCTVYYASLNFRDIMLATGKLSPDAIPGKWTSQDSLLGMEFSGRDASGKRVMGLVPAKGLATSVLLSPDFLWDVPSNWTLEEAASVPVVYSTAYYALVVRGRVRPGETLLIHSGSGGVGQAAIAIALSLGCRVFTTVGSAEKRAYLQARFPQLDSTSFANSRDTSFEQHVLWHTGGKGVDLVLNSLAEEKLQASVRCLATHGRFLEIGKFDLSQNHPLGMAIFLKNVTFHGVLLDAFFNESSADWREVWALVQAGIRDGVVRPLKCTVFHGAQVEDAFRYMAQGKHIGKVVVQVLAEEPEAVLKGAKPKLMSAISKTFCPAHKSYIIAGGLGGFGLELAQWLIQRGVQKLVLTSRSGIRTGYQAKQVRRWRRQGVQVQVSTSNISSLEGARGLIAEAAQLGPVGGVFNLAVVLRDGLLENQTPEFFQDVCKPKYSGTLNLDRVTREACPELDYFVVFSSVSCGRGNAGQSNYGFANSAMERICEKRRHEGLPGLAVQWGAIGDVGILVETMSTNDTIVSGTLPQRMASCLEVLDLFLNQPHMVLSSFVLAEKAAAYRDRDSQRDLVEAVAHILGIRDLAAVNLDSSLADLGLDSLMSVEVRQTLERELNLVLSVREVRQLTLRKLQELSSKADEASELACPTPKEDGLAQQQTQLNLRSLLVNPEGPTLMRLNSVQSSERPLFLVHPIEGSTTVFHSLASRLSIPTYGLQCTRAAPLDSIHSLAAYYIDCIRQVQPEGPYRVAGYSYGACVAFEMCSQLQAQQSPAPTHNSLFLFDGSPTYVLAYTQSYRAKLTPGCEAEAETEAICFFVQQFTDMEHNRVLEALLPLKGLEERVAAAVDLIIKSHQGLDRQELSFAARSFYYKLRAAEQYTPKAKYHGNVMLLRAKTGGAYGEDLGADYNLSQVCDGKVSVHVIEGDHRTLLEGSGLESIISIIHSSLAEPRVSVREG
# Chain of Estrogen receptor beta (Q92731 whole entry): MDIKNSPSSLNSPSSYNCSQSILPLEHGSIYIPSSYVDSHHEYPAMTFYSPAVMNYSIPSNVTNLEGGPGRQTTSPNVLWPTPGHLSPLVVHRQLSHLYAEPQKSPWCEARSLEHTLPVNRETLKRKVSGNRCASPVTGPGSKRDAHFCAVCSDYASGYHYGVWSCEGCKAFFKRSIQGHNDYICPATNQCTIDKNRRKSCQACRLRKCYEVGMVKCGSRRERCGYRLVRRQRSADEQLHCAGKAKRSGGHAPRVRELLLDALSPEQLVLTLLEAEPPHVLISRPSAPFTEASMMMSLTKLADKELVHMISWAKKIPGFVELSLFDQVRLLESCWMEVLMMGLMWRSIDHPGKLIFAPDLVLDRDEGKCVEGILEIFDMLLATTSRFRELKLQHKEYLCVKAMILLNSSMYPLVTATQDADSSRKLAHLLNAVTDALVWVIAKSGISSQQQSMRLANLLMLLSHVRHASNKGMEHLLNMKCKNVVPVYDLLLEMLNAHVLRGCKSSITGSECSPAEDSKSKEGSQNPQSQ
# Chain of Cytochrome P450 2C9 (P11712 whole entry): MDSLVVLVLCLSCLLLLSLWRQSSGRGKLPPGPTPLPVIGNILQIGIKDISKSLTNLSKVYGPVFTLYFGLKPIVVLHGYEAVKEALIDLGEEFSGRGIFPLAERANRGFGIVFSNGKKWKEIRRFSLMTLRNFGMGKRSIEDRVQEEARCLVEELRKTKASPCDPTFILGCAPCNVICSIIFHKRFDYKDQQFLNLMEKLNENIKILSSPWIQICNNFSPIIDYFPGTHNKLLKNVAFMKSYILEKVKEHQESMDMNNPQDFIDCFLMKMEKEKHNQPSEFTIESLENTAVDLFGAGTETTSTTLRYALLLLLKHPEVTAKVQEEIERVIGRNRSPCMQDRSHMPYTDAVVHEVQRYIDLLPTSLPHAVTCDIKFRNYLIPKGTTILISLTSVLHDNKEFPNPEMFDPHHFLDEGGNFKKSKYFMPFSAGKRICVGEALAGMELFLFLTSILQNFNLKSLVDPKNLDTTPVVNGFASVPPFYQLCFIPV
smiles,measurement,setting,value
COC(=O)c1sc(-c2ccc(C(C)(C)C)cc2)cc1NC(=O)CSCC(=O)O,CC50,[1],15.7 µM (active)
same,IC50,[2],4.1 µM (active)
same,IC50,[3],14.1 µM (active)
same,EC50,[4],6.69 µM (active)
same,EC50,[5],8.94 µM (active)
same,EC50,[6],36.8 µM (active)
same,EC50,[7],12.1 µM (active)
COc1cccc(NC(=O)CN2C(=O)CSc3ccc(S(=O)(=O)N4CCC(C)CC4)cc32)c1,IC50,[8],6.24 µM (active)
same,IC50,[9],2.44 µM (active)
O=C(Cn1nc(-c2ccco2)ccc1=O)Nc1cc(C(F)(F)F)ccc1Cl,IC50,[8],11.8 µM (active)
same,IC50,[9],13.1 µM (active)
O=[N+]([O-])c1ccc(Sc2ccccc2)nc1,IC50,[2],< 0.368 µM (active)
same,IC50,[3],5.42 µM (active)
same,EC50,[10],> 260 µM (inactive)
same,EC50,[6],> 53 µM (inactive)
COc1ccccc1NC(=O)c1sc2ncn(Cc3cccc(C)c3)c(=O)c2c1C,IC50,[11],> 50 µM (not active)
CC1CCN(S(=O)(=O)c2ccc3c(c2)c(=O)c(C(=O)NCc2ccco2)cn3C)CC1,IC50,[8],3.81 µM (active)
same,IC50,[9],2.4 µM (active)
CCn1cc(C(=O)NCc2ccco2)c(=O)c2cc(S(=O)(=O)N3CCCC3)ccc21,IC50,[11],1.31 µM (active)
Cc1nc(Sc2ccccc2)c(C#N)c(C)c1[N+](=O)[O-],IC50,[8],13.9 µM (active)
same,IC50,[9],8.81 µM (active)
CCCC(=O)n1nc(-c2ccccc2)nc1SC,IC50,[11],0.935 µM (active)
COC(=O)c1nnc(NC(=O)c2ccccc2)[nH]1,IC50,[11],0.0545 µM (active)
same,AC50,[12],3.98 µM (inconclusive)
same,AC50,[13],17.8 µM (inconclusive)
O=C(Nc1nccs1)c1ccc2nccnc2c1,IC50,[14],14.9 µM (active)
CC(C)c1ccc(S(=O)(=O)c2nnn3c2nc(NCC2CCCO2)c2ccccc23)cc1 (stereo not drawn),IC50,[8],1.72 µM (active)
same,IC50,[9],1.34 µM (active)
CCCCc1nc2sc3c(SCCN(C)C)ncnc3c2c2c1CCC2,AC50,[15],19.7 µM (active)
same,CC50,[16],20.6 µM (active)
Nc1nonc1NC(=O)CSc1ncccc1C(=O)O,IC50,[14],> 50 µM (not active)
CC(C)N1CCc2c(sc(NC(=O)c3cc4cc([N+](=O)[O-])ccc4s3)c2C(N)=O)C1,AC50,[15],10.3 µM (active)
same,EC50,[6],> 53 µM (inactive)

# Reference: ChEMBL document CHEMBL1201862, “PubChem BioAssay data set” (2004)
